Data on eight compounds can be found in patent publication US5747466A, “3-deoxy-3-descladinose derivatives of erythromycins A and B” (Abbott Laboratories, priority 1996, dated 1998).

What all share (assay): In vitro antibacterial activity (MIC), agar dilution
What all share (assay type): cell-based
(In agar dilution, organisms are placed on agar that contains the substance at set levels.)

Experiment [1] relates to MYCOBACTERIUM SMEGMATIS ATCC 114. The following applies: M. smegmatis ATCC 114; BHI agar, 35-37 °C, 20-24 h.
The subject of experiment [2] is ACINETOBACTER CALCOACETICUS CMX 669. The following applies: A. calcoaceticus CMX 669; BHI agar, 35-37 °C, 20-24 h.
Experiment [3] deals with KLEBSIELLA PNEUMONIAE ATCC 8045. The following applies: K. pneumoniae ATCC 8045; BHI agar, 35-37 °C, 20-24 h.
For experiment [4], the system named is STAPHYLOCOCCUS AUREUS NCTC10649M. The settings on record: S. aureus NCTC10649M; BHI agar, 35-37 °C, 20-24 h.
The subject of experiment [5] is STAPHYLOCOCCUS EPIDERMIDIS 3519.
The test system of experiment [6] is PROVIDENCIA STUARTII CMX 640.
The next experiment concerns PSEUDOMONAS CEPACIA 296I. The settings on record: P. cepacia 296I; BHI agar, 35-37 °C, 20-24 h.
The test system of experiment [7] is PSEUDOMONAS AERUGINOSA BMH10. The settings on record: P. aeruginosa BMH10; BHI agar, 35-37 °C, 20-24 h.
The test system of the next experiment is ESCHERICHIA COLI SS. The settings on record: E. coli SS; BHI agar, 35-37 °C, 20-24 h.
A further experiment relates to ESCHERICHIA COLI JUHL.
The mark [8] stands for this setting: S. epidermidis 3519, BHI agar, 35-37 °C, 20-24 h.
Setting [9] is: P. stuartii CMX 640, BHI agar, 35-37 °C, 20-24 h.
The mark [10] stands for this setting: E. coli JUHL, BHI agar, 35-37 °C, 20-24 h.

Where two headings read alike, the source gives them in different places. A value given as a limit tells only on which side of the number the result lay.

As to `CC[C@H]1OC(=O)[C@H](C)C[C@H](C)[C@@H](O[C@@H]2O[C@H](C)C[C@H](N(C)C)[C@H]2O)[C@](C)(OC)C[C@@H](C)C(=NOC)[C@H](C)[C@@H](O)[C@]1(C)O` [Ex. 6], the “minimum inhibitory concentration (MIC)” value in [1] is reported as 3.1; in [2], greater than 100; in experiment [3] it was greater than 100; in experiment [4], 6.2; in [5] (setting [8]) it was 12.5; in experiment [6] (setting [9]), 100. In addition, the “minimum inhibitory concentration (MIC)” value is recorded as 12.5 in the experiment on PSEUDOMONAS CEPACIA 296I and greater than 100 in experiment [7].
On to `CC[C@H]1OC(=O)[C@H](C)C[C@H](C)[C@@H](O[C@@H]2O[C@H](C)C[C@H](N(C)C)[C@H]2O)[C@](C)(OC)C[C@@H](C)C(=O)[C@H](C)[C@@H](O)[C@]1(C)O` [Ex. 1], for which the “minimum inhibitory concentration (MIC)” value is on record as 100 in experiment [1]; greater than 100 in [2]; greater than 100 in [3]; 6.2 in experiment [4]; 0.78 in the experiment on ESCHERICHIA COLI SS; 50 in [5] (setting [8]). Also, the “minimum inhibitory concentration (MIC)” value (in [6] (setting [9]); in the experiment on ESCHERICHIA COLI JUHL (setting [10]); in the experiment on PSEUDOMONAS CEPACIA 296I; in [7]) was greater than 100 each time.
As for `CC[C@H]1OC(=O)[C@H](C)C[C@H](C)[C@@H](O[C@@H]2O[C@H](C)C[C@H](N(C)C)[C@H]2O)[C@](C)(OC)C[C@@H](C)C(=O)[C@H](C)[C@H]2N(CCc3ccc(Oc4ccccc4)cc3)C(=O)O[C@]12C` [Ex. 5], the “minimum inhibitory concentration (MIC)” value in [1] is 3.1; in experiment [2], greater than 100; in experiment [3], greater than 100; in [4], 6.2; in [5] (setting [8]), 12.5; in experiment [6] (setting [9]), greater than 100. The “minimum inhibitory concentration (MIC)” value is listed as 100 with PSEUDOMONAS CEPACIA 296I and greater than 100 in experiment [7].
As for `CC[C@H]1OC(=O)[C@H](C)[C@@H](O[C@H]2C[C@@](C)(OC)[C@@H](O)[C@H](C)O2)[C@H](C)[C@@H](O[C@@H]2O[C@H](C)C[C@H](N(C)C)[C@H]2O)[C@](C)(O)C[C@@H](C)C(=O)[C@H](C)[C@@H](O)[C@]1(C)O` [Ery A, Erythromycin A, reference compound], the “minimum inhibitory concentration (MIC)” value in [1] is listed as 25; in [3], 25; in [4] it was 0.2; in the experiment on ESCHERICHIA COLI SS it was 0.2; in experiment [5] it was 0.1; in experiment [6], greater than 100. The “minimum inhibitory concentration (MIC)” value is listed as 50 in the experiment with ESCHERICHIA COLI JUHL, greater than 100 with PSEUDOMONAS CEPACIA 296I and 100 in experiment [7].
On to `CC[C@H]1OC(=O)[C@H](C)C[C@H](C)[C@@H](O[C@@H]2O[C@H](C)C[C@H](N(C)C)[C@H]2O)[C@](C)(OC)C[C@@H](C)C(=O)[C@H](C)[C@H]2OC(=O)O[C@@]21C` [Ex. 3], for which the “minimum inhibitory concentration (MIC)” value was 3.1 in [1]; greater than 100 in experiment [2]; greater than 100 in [3]; 6.2 in [4]; 0.78 with ESCHERICHIA COLI SS; 6.2 in [5] (setting [8]). Moreover, the “minimum inhibitory concentration (MIC)” value (in experiment [6] (setting [9]); in the experiment with ESCHERICHIA COLI JUHL (setting [10]); in the experiment with PSEUDOMONAS CEPACIA 296I; in experiment [7]) was greater than 100 each time.
For the compound `CC[C@H]1OC(=O)[C@H](C)C[C@H](C)[C@@H](O[C@@H]2O[C@H](C)C[C@H](N(C)C)[C@H]2O)[C@](C)(OC)C[C@@H](C)C(=NOCOCCOC)[C@H](C)[C@@H](O)[C@]1(C)O` [Ex. 8], the “minimum inhibitory concentration (MIC)” value is recorded as 25 in experiment [1]; 12.5 in experiment [2]; 25 in experiment [3]; 0.2 in experiment [4]; 0.2 with ESCHERICHIA COLI SS; 0.1 in experiment [5] (setting [8]). Besides, the “minimum inhibitory concentration (MIC)” value in [6] (setting [9]) is recorded as greater than 100; in the experiment with ESCHERICHIA COLI JUHL (setting [10]), 50; in the experiment on PSEUDOMONAS CEPACIA 296I, greater than 100; in experiment [7], 100.
As to `CC[C@H]1OC(=O)[C@H](C)C[C@H](C)[C@@H](O[C@@H]2O[C@H](C)C[C@H](N(C)C)[C@H]2O)[C@](C)(OC)C[C@@H](C)C(=NO)[C@H](C)[C@@H](O)[C@]1(C)O` [Ex. 2], the “minimum inhibitory concentration (MIC)” value in experiment [1] is on record as 6.2; in experiment [2], greater than 100; in experiment [3], greater than 100; in [4], 12.5; with ESCHERICHIA COLI SS it was 0.78; in [5] (setting [8]), 12.5. Besides, the “minimum inhibitory concentration (MIC)” value (in experiment [6] (setting [9]); in the experiment on ESCHERICHIA COLI JUHL (setting [10]); in the experiment on PSEUDOMONAS CEPACIA 296I; in experiment [7]) was greater than 100 throughout.
For `CC[C@H]1OC(=O)[C@H](C)C[C@H](C)[C@@H](O[C@@H]2O[C@H](C)C[C@H](N(C)C)[C@H]2O)[C@](C)(OC)C[C@@H](C)C(=O)[C@H](C)[C@H]2N(CCCCc3ccccc3)C(=O)O[C@]12C` [Ex. 4], the “minimum inhibitory concentration (MIC)” value is 1.56 in [1]; 100 in experiment [2]; greater than 100 in experiment [3]; 1.56 in experiment [4]; 1.56 with ESCHERICHIA COLI SS; 1.56 in experiment [5] (setting [8]). Moreover, the “minimum inhibitory concentration (MIC)” value (in experiment [6] (setting [9]); in the experiment with ESCHERICHIA COLI JUHL (setting [10]); in experiment [7]) was greater than 100 in each case.
